Measurements as given in patent US6806265B2, “Non-nucleoside reverse transcriptase inhibitors” (priority 2002, dated 2004).
Read-outs that look alike come from different tables or passages of the source.

Legend:
[1] = molecular target: T1, HIV-1 wild type reverse transcriptase (Human immunodeficiency virus type 1 group M subtype B, UniProt P03366); experiment: biochemical; details: read-out: IC50 WT RT
T1 construct: HIV-1 wild type reverse transcriptase
Protocol: (§1) Utilizing the Reverse Transcriptase (RT) Assay described below, compounds were tested for their ability to inhibit the RNA-dependent DNA polymerase activity of HIV-1 RT. Certain specific compounds described in the Examples and in Tables 1-4, were so tested. The results of this testing appear in Table 5 as ranges of IC50 (nM) and EC50 (nM).
(§2) Reverse Transcriptase (RT) Assays

[2] = molecular target: T2, HIV-1 RT double mutant K103N/Y181C (Human immunodeficiency virus type 1 group M subtype B, UniProt P03366, K702N/Y780C); experiment: biochemical
T2 construct: HIV-1 wild type reverse transcriptase as well as the clinically significant double mutant K103N/Y181C
Protocol: as §1, §2

[3] = tested on: HIV-1 double mutant K103N/Y181C; experiment: microbe, parasite or virus in culture; type: cell-based
[4] = RT double mutant K103N/Y181C, read-out: IC50 K103N/Y181C
[5] = Human immunodeficiency virus 1, read-out: EC50 K103N/Y181C (nM)

Compound	IC50 ([1]; wild type RT)	IC50 [2, 4]	IC50 [2]	also measured
CCN1c2ncc(CCOc3ccc(-c4cc[n+]([O-])cc4)cc3C)cc2C(=O)N(C)c2cccnc21 [Entry 1084]	< 50 nM	< 50 nM	–	–
CCN1c2ncc(CCOc3ccc(-c4cc(C(=O)O)ccc4OC)cc3C)cc2C(=O)N(C)c2cccnc21 [Entry 1030]	< 50 nM	> 100 nM	–	–
CCN1c2ncc(CCOc3ccc(-c4ccc(CC(=O)O)cc4[N+](=O)[O-])cc3C)cc2C(=O)N(C)c2cccnc21 [Entry 1027]	< 50 nM	50 to 100 nM	–	–
CCN1c2ncc(CCOc3ccc(-c4cc(C)nc(C)c4)cc3C)cc2C(=O)N(C)c2cccnc21 [Entry 1087]	< 50 nM	< 50 nM	–	–
CCN1c2ncc(CCOc3ccc(-c4ccc(N)nc4)cc3C)cc2C(=O)N(C)c2cccnc21 [Entry 1079]	< 50 nM	< 50 nM	–	–
CCN1c2ncc(CCOc3ccc(-n4ccnc4)cc3C)cc2C(=O)N(C)c2cccnc21 [Entry 1098, 11-Ethyl-5,11-dihydro-8-{2-[4-(1H-imidazol-1-yl)-2-methylphenoxy]ethyl}-5-methyl-6H-dipyrido[3,2-b:2′,3′-e][1,4]diazepin-6-one]	–	–	< 50 nM	EC50 [3, 5]: < 10 nM
CCN1c2ncc(CCOc3ccc(NC(=O)c4ccc(Cl)nc4)cc3C)cc2C(=O)N(C)c2cccnc21 [Entry 3035]	< 50 nM	–	< 50 nM	–
CCN1c2ncc(CCOc3ccc(-c4cc(Cl)c(C(=O)O)cc4F)cc3C)cc2C(=O)N(C)c2cccnc21 [Entry 1020]	< 50 nM	< 50 nM	–	–
CCN1c2ncc(CCOc3ccc(-c4cc(C)cnc4N)cc3C)cc2C(=O)N(C)c2cccnc21 [Entry 1082]	< 50 nM	< 50 nM	–	–
CCN1c2ncc(CCOc3ccc(C(=O)Nc4ccc[n+]([O-])c4)cc3C)cc2C(=O)N(C)c2cccnc21 [Entry 3013]	< 50 nM	–	< 50 nM	–
CCN1c2ncc(CCOc3ccc(-c4ccc(C)nc4)cc3C)cc2C(=O)N(C)c2cccnc21 [Entry 1072]	–	< 50 nM	–	EC50 ([3]; double mutant K103N/Y181C, read-out: EC50 K103N/Y181C): < 10 nM
CCN1c2ncc(CCOc3ccc(-c4ccc(C(=O)O)o4)cc3)cc2C(=O)N(C)c2cccnc21 [Entry 1045]	< 50 nM	50 to 100 nM	–	–
CCN1c2ncc(CCOc3ccc(NS(C)(=O)=O)cc3C)cc2C(=O)N(C)c2cccnc21 [Entry 4005]	< 50 nM	–	< 50 nM	–
CCN1c2ncc(CCOc3ccc(-c4cccc(C(C)C(=O)O)c4)cc3C)cc2C(=O)N(C)c2cccnc21 (centres unmarked) [Entry 1016]	< 50 nM	50 to 100 nM	–	–
CCN1c2ncc(CCOc3ccc(N(CC(=O)O)C(C)=O)cc3C)cc2C(=O)N(C)c2cccnc21 [Entry 4002]	< 50 nM	–	> 100 nM	–
CCN1c2ncc(CCOc3ccc(-c4cc(C(=O)O)on4)cc3)cc2C(=O)N(C)c2cccnc21 [Entry 1040]	< 50 nM	> 100 nM	–	–
CCN1c2ncc(CCOc3ccc(C(=O)NCc4ccc(C(=O)O)cc4)cc3C)cc2C(=O)N(C)c2cccnc21 [Entry 3002]	< 50 nM	–	< 50 nM	–
CCN1c2ncc(CCOc3ccc(C(=O)N(C)Cc4ccc(C(=O)O)cc4)cc3C)cc2C(=O)N(C)c2cccnc21 [Entry 3006]	< 50 nM	–	50 to 100 nM	–
CCN1c2ncc(CCOc3ccc(C(=O)Nc4cccc[n+]4[O-])cc3C)cc2C(=O)N(C)c2cccnc21 [Entry 3015]	< 50 nM	–	< 50 nM	–
CCN1c2ncc(CCOc3ccc(-c4nc(C(=O)O)cs4)cc3)cc2C(=O)N(C)c2cccnc21 [Entry 1039]	< 50 nM	> 100 nM	–	–
CCN1c2ncc(CCOc3ccc(-c4ccnc(C)c4)cc3C)cc2C(=O)N(C)c2cccnc21 [Entry 1085]	< 50 nM	< 50 nM	–	–
CCN1c2ncc(CCOc3ccc(-c4cccnc4C)cc3C)cc2C(=O)N(C)c2cccnc21 [Entry 1074]	< 50 nM	< 50 nM	–	–
CCN1c2ncc(CCOc3ccc(-c4cncnc4)cc3)cc2C(=O)N(C)c2cccnc21 [Entry 1062]	< 50 nM	> 100 nM	–	–
CCN1c2ncc(CCOc3ccc(-c4cc(C)[n+]([O-])c(C)c4)cc3C)cc2C(=O)N(C)c2cccnc21 [Entry 1088]	< 50 nM	< 50 nM	–	–
CCN1c2ncc(CCOc3ccc(-c4ccc(CC(=O)O)cc4Cl)cc3C)cc2C(=O)N(C)c2cccnc21 [Entry 1025]	< 50 nM	< 50 nM	–	–
CCN1c2ncc(CCOc3ccc(-c4ccc(CC(=O)O)cc4C)cc3C)cc2C(=O)N(C)c2cccnc21 [Entry 1023]	–	50 to 100 nM	–	–
CCN1c2ncc(CCOc3ccc(Nc4ccccn4)cc3C)cc2C(=O)N(C)c2cccnc21 [Entry 3036]	–	–	< 50 nM	EC50 [3, 5]: < 10 nM

Compound	IC50 ([1]; wild type RT)	IC50 [2, 4]	IC50 [2]	also measured
CCN1c2ncc(CCOc3ccc(-c4cc(F)c(O)c(F)c4)cc3C)cc2C(=O)N(C)c2cccnc21 [Entry 1103]	< 50 nM	50 to 100 nM	–	–
CCN1c2ncc(CCOc3ccc(-c4ncccn4)cc3)cc2C(=O)N(C)c2cccnc21 [Entry 1061]	< 50 nM	> 100 nM	–	–
CCN1c2ncc(CCOc3ccc(Nc4ccc(C(=O)O)cn4)cc3C)cc2C(=O)N(C)c2cccnc21 [Entry 3025]	–	–	< 50 nM	EC50 [3, 5]: 10 to 50 nM
CCN1c2ncc(CCOc3ccc(-c4ccc(C)[n+]([O-])c4C)cc3C)cc2C(=O)N(C)c2cccnc21 [Entry 1078]	< 50 nM	< 50 nM	–	–
CCN1c2ncc(CCOc3ccc(-c4cnccc4C)cc3C)cc2C(=O)N(C)c2cccnc21 [Entry 1076, 11-Ethyl-5,11-dihydro-5-methyl-8-{2-[2-methyl-4-(4-methyl-3-pyridinyl)phenoxy]ethyl}-6H-dipyrido[3,2-b:2′,3′-e][1,4]diazepin-6-one]	< 50 nM	–	< 50 nM	–
CCN1c2ncc(CCOc3ccc(-c4cscn4)cc3)cc2C(=O)N(C)c2cccnc21 [Entry 1092]	< 50 nM	> 100 nM	–	–
CCN1c2ncc(CCOc3ccc(-c4occc4C(=O)O)cc3)cc2C(=O)N(C)c2cccnc21 [Entry 1050]	> 100 nM	–	–	–
CCN1c2ncc(CCOc3cccc(-c4cccc(C(=O)O)c4)c3)cc2C(=O)N(C)c2cccnc21 [Entry 2002]	> 100 nM	–	–	–
CCN1c2ncc(CCOc3ccc(-c4ccc(C(=O)O)c(C)c4)cc3C)cc2C(=O)N(C)c2cccnc21 [Entry 1017]	< 50 nM	< 50 nM	–	–
CCN1c2ncc(CCOc3ccc(-c4cc[n+]([O-])c(C)c4)cc3C)cc2C(=O)N(C)c2cccnc21 [Entry 1086]	< 50 nM	< 50 nM	–	–
CCN1c2ncc(CCOc3cccc(-c4ccc(C(=O)O)cc4)c3)cc2C(=O)N(C)c2cccnc21 [Entry 2001, 3′-[2-(11-Ethyl-6,11-dihydro-5-methyl-6-oxo-5H-dipyrido[3,2-b:2′,3′-e][1,4]diazepin-8-yl)ethoxy]-[1,1′-biphenyl]-4-carboxylic acid]	> 100 nM	–	–	–
CCN1c2ncc(CCOc3ccc(N(Cc4ccc(C(=O)O)cc4)C(C)=O)cc3C)cc2C(=O)N(C)c2cccnc21 [Entry 4003]	50 to 100 nM	–	> 100 nM	–
CCN1c2ncc(CCOc3ccc(-c4cc(C(=O)O)ccc4F)cc3C)cc2C(=O)N(C)c2cccnc21 [Entry 1029]	< 50 nM	50 to 100 nM	–	–
CCN1c2ncc(CCOc3ccc(-c4ccc(F)c(CC(=O)O)c4)cc3C)cc2C(=O)N(C)c2cccnc21 [Entry 1057]	< 50 nM	< 50 nM	–	–
CCN1c2ncc(CCOc3ccc(NC(C)=O)cc3C)cc2C(=O)N(C)c2cccnc21 [Entry 4001]	< 50 nM	–	50 to 100 nM	–
CCN1c2ncc(CCOc3cccc(-c4ccccc4)c3)cc2C(=O)N(C)c2cccnc21 [Entry 2003]	< 50 nM	–	> 100 nM	–
CCN1c2ncc(CCOc3ccc(C(=O)NN)cc3C)cc2C(=O)Nc2c(C)ccnc21 [Entry 4019]	< 50 nM	50 to 100 nM	–	–
CCN1c2ncc(CCOc3ccc(-c4ccc(CCC(=O)O)o4)cc3C)cc2C(=O)N(C)c2cccnc21 [Entry 1049]	–	> 100 nM	–	IC50 [1]: < 50 nM
CCN1c2ncc(CCOc3ccc(-c4ccc(CCC(=O)O)o4)cc3)cc2C(=O)N(C)c2cccnc21 [Entry 1048]	–	> 100 nM	–	IC50 [1]: < 50 nM
CCN1c2ncc(CCOc3ccc(N(C)c4ccc(C(=O)O)cc4)cc3C)cc2C(=O)N(C)c2cccnc21 [Entry 3023]	< 50 nM	–	50 to 100 nM	–
CCN1c2ncc(CCOc3ccc(-c4ccc(N)nc4C)cc3C)cc2C(=O)N(C)c2cccnc21 [Entry 1081]	< 50 nM	< 50 nM	–	–
CCN1c2ncc(CCOc3ccc(-c4cnc(N)c(C)c4)cc3C)cc2C(=O)N(C)c2cccnc21 [Entry 1080]	< 50 nM	< 50 nM	–	–
CCN1c2ncc(CCOc3ccc(C(=O)NCc4cc[n+]([O-])cc4)cc3C)cc2C(=O)N(C)c2cccnc21 [Entry 3003]	< 50 nM	–	50 to 100 nM	–
CCN1c2ncc(CCOc3ccc(-c4c[n+]([O-])ccc4C)cc3C)cc2C(=O)N(C)c2cccnc21 [Entry 1077, 11-Ethyl-5,11-dihydro-5-methyl-8-{2-[2-methyl-4-(4-methyl-1-oxido-3-pyridinyl)phenoxy]ethyl}-6H-dipyrido[3,2-b:2′,3′-e][1,4]diazepin-6-one]	< 50 nM	–	< 50 nM	–
CCN1c2ncc(CCOc3ccc(-c4cc(C)ccn4)cc3C)cc2C(=O)N(C)c2cccnc21 [Entry 1065]	< 50 nM	< 50 nM	–	–
CCN1c2ncc(CCOc3ccc(-c4ccc(C)cc4)cc3C)cc2C(=O)N(C)c2cccnc21 [Entry 1105]	< 50 nM	< 50 nM	–	–
CCN1c2ncc(CCOc3ccc(-c4ccc(C(=O)O)c(F)c4)cc3C)cc2C(=O)N(C)c2cccnc21 [Entry 1018]	< 50 nM	< 50 nM	–	–
